Measured values published in ChEMBL document CHEMBL4316647, “Raistrickindole A, an Anti-HCV Oxazinoindole Alkaloid from Penicillium raistrickii IMB17-034” (J Nat Prod, 2019).
pEC50, pIC50: −log10 of the molar value.

Assays:
[1] = tested on: Staphylococcus aureus; assay: Antibacterial activity against Staphylococcus aureus; type: functional
[2] = tested on: NCI-H460; assay: Cytotoxicity against human NCI-H460 cells; type: functional, cell-based
[3] = tested on: Escherichia coli; assay: Antibacterial activity against Escherichia coli; type: functional
[4] = tested on: A549; assay: Cytotoxicity against human A549 cells; type: functional, cell-based
[5] = tested on: Enterococcus faecalis; assay: Antibacterial activity against Enterococcus faecalis; type: functional
[6] = tested on: Pseudomonas aeruginosa; assay: Antibacterial activity against Pseudomonas aeruginosa; type: functional
[7] = tested on: HCT-116; assay: Cytotoxicity against human HCT116 cells; type: functional, cell-based
[8] = tested on: Hepatitis C virus; assay: Antiviral activity against HCV infected in human Huh7.5 cells assessed as reduction in intracellular HCV RNA incubated for 72 hrs by real-time one-step reverse-transcription polymerase chain reaction assay; type: functional, organism-based, Hepacivirus hominis; conditions: Huh7.5, 72 h
[9] = Cytotoxicity against human Huh7.5 cells assessed as reduction in cell viability; type: cell-based
[10] = Selectivity index, ratio of CC50 for Cytotoxicity against human Huh7.5 cells to EC50 for antiviral activity against HCV infected in human Huh7.5 cells; type: toxicity, cell-based; conditions: read-out: Ratio CC50/EC50

Row | SMILES | MIC [1] [µg/mL] | pIC50 [2] | MIC [3] [µg/mL] | pIC50 [4] | MIC [5] [µg/mL] | MIC [6] [µg/mL] | pIC50 [7] | pEC50 [8] | CC50 [9] [µM] | selectivity ratio [10]
1 | O=C1N[C@@H](Cc2ccccc2)C(=O)N2O[C@H]3Nc4ccccc4[C@@]3(O)C[C@@H]12 | > 128 | ≤ 4.00 | > 128 | ≤ 4.00 | > 128 | > 128 | ≤ 4.00 | 5.24 | > 200 | > 35
2 | O=C1Cn2c(nc3ccccc3c2=O)-c2ccccc2N1 | > 128 | ≤ 4.00 | > 128 | ≤ 4.00 | > 128 | > 128 | ≤ 4.00 | 5.15 | > 200 | > 28
3 | CCC[C@H](NC(=O)[C@@H]1[C@H]2CCC[C@H]2CN1C(=O)[C@@H](NC(=O)[C@@H](NC(=O)c1cnccn1)C1CCCCC1)C(C)(C)C)C(=O)C(=O)NC1CC1 [TELAPREVIR] |  |  |  |  |  |  |  | 7.30 | 25.8 | 478
4 | O=C1N[C@@H](Cc2ccccc2)C(=O)N(O)[C@H]1C[C@]1(O)c2ccccc2N2C(=O)C[C@@H](c3ccccc3)N[C@H]21 | > 128 | ≤ 4.00 | > 128 | ≤ 4.00 | > 128 | > 128 | ≤ 4.00 | < 4.48 | 88.4 | < 3
5 | O=C1NCc2nc3ccccc3c(=O)n2-c2ccccc21 [SCLEROTIGENIN] | > 128 | ≤ 4.00 | > 128 | ≤ 4.00 | > 128 | > 128 | ≤ 4.00 | 5.24 | > 200 | > 35
